From patent publication US3937801A, “Reducing the incidence of gastrointestinal side effects during the treatment of inflammatory conditions with antiinflammatory drugs” (priority 1973, dated 1976)
Several values for one entry are separate records, joined by “and”; a condition that tells them apart may be missing. Equal values may be shown once. Read-outs that look alike come from different tables or passages of the source.

How the values were obtained:
[1] = tested on: indomethacin-induced ulcers; test: indomethacin-induced ulcer formation in rats (procedure of Lee et al.); format: in vivo, rat; settings: for ED50: po; for Relative Potency ± S.E.M.: relative to 2-(3-hydroxy-3-methyloctyl)-5-oxocyclopentaneheptanoic acid, procedure of Example 1
Description: The gastrointestinal side effect inhibiting property of the compositions of the present invention are demonstrable in standard pharmacological tests. For example, in procedures similar to the in vivo test described by Y. H. Lee et al., cited above, for evaluating the effects of a test compound on indomethacin-induced ulcers in the rat, the compounds of formula 1 are shown to be effective, see Examples 1 and 2.
By following the procedure of Lee et al., cited above, for the production of the indomethacin-induced ulcer in rats, the property of the compounds of formula 1 to inhibit such ulcers is readily demonstrable. More specifically: male albino rats (170 - 190 g; Sprague-Dawley strain, Canadian Breeding Laboratories), caged individually, were fasted 24 hr with free access to water until the start of the experiment. Indomethacin was given intraperitoneally. The animals were killed 5 hr later and the ulcer formation in the glandular portion of the stomach determined. The compound of formula 1 was administered perorally immediately after the indomethacin. The percent inhibition of ulcer formation versus the semilogarithm of the dose (mg/kg) was plotted and the dose at which 50% inhibition occurred (ED50) was read from the graph.
Analysis of variance and regression study were used in the evaluation of the data.
Indomethacin was administered (0.5 ml) as an aqueous suspension (2 drops of polysorbate 80 per 14 ml of H2 O). Polysorbate 80 is a mixture of sorbitol and its anhydrides copolymerized with ethylene oxide. The compounds of formula 1 were given (0.2 ml) in a 0.2% sodium carboxymethyl cellulose aqueous suspension.
The results of such a test for 2-(3-hydroxy-3-methyloctyl)-5-oxocyclopentaneheptanoic acid to inhibit the ulcer formation induced by 20 mg/kg i.p. of indomethacin are given in the following table. For comparative purposes the results obtained for propantheline bromide are also included.
By following the procedure of Example 1 the effects of compounds of formula 1 other than 2-(3-hydroxy-3-methyloctyl)-5-oxocyclopentaneheptanoic acid on indomethacin-induced ulcers are demonstrable. Accordingly, the results obtained with such other compounds of formula 1 are exemplified by the following list in which the relative potency of each compound with respect to 2-(3-hydroxy-3-methyloctyl)-5-oxocyclopentaneheptanoic acid is noted.

[2] = tested on: gastric acid secretion; test: inhibition of gastric acid secretion in the rat (method of Lippmann); format: in vivo; settings: unit inferred, read-out: Ed50 for inhibiting gastric acid secretion
Method: A comparison of the ED50 for inhibiting indomethacin-induced ulcers and the ED50 for inhibiting gastric acid secretion for compounds of formula 1 is exemplified in the following list. Both ED50 's are determined in the rat. The ED50 for inhibiting indomethacin-induced ulcers is obtained according to the method of Example 1. The ED50 for inhibiting gastric acid secretion is obtained according to the method of Lippmann, cited above.

[3] = tested on: diarrhea; test: diarrhea in female mice or rats, peroral; format: in vivo, mouse; settings: 60 minutes; for diarrheal effect: female mice, 240 mg/kg peroral
[4] = tested on: phenylbutazone-induced ulcers; test: phenylbutazone-induced ulcer formation in rats; format: in vivo, rat; settings: for % Inhibition of ulcer formation / Ulcers Formed, Mean ± S.E.M.: phenylbutazone 300 mg/kg p.o., 18 hr
[5] = cited from earlier work; for stability: natural prostaglandins, T.O. Oesterling et al.
[6] = tested on: ulcers; settings: man; N.O. Rothermich 1966; cited from earlier work
[7] = tested on: indomethacin-induced ulcers; settings: cited from earlier work
[8] = tested on: diarrheal effect; settings: larger doses; Misiewicz et al. 1969; cited from earlier work
[9] = tested on: gastric acid secretion; settings: W. Lippmann 1971; cited from earlier work
[10] = 5 h, rat, method of Example 1 (dose in mg/kg there), unit inferred, read-out: ED50 for inhibiting indomethacin-induced ulcer
[11] = Rattus norvegicus, indomethacin 20 mg/kg i.p., 5 hr, read-out: ED50 (dose at which 50% inhibition of ulcer formation occurred)

CCCCC(C)(C)C(O)C=C[C@@H]1CCC(=O)[C@H]1C/C=C\CCCC(=O)O (relative stereo) [trans,cis-7-[2-(3-Hydroxy-4,4-dimethyl-1-octenyl)-5-oxocyclopentyl]-5-heptenoic acid]
ED50 [1, 10]: ~0.02 mg/kg
Relative Potency ± S.E.M. [1]: 4.8
ED50 [2]: ~1 mg/kg

CCCCCC(O)C=C[C@@H]1CCC(=O)[C@H]1CCCCCCC(=O)O (relative stereo) [trans-2-(3-Hydroxy-1-octenyl)-5-oxocyclopentaneheptanoic acid]
Relative Potency ± S.E.M. [1]: 0.74 ± 0.20

CCCCCC(C)(O)C=C[C@@H]1CCC(=O)[C@H]1CCCCCCC(=O)O (relative stereo) [trans-2-(3-Hydroxy-3-methyl-1-octenyl)-5-oxocyclopentaneheptanoic acid]
Relative Potency ± S.E.M. [1]: 1.07 ± 0.33

CCCCCC(O)CC[C@@H]1CCC(=O)[C@H]1CCCCCCC(=O)O (relative stereo) [trans-2-(3-Hydroxyoctyl)-5-oxocyclopentaneheptanoic acid]
Relative Potency ± S.E.M. [1]: 0.45 ± 0.12 and 0.64 ± 0.20

O=C(O)CCCCCC[C@@H]1C(=O)CC[C@H]1C=CC(O)CC1CCCCC1 (relative stereo) [trans-2-(4-Cyclohexyl-3-hydroxy-1-butenyl)-5-oxocyclopentaneheptanoic acid]
Relative Potency ± S.E.M. [1]: 0.13 ± 0.06

CCCCCC(O)C=C[C@@H]1CCC(=O)[C@H]1C/C=C\CCCC(=O)O (single isomer, unassigned) [trans,cis-7-[2-(3-Hydroxy-1-octenyl)-5-oxocyclopentyl]-5-hep] [trans,cis-7-[2-(3-Hydroxy-1-octenyl)-5-oxocyclopentyl]-5-heptenoic acid]
Relative Potency ± S.E.M. [1]: 0.37 ± 0.21 and 0.37 ± 0.14

CCCCCC(C)(O)CCC1CCC(=O)C1CCCCCCC(=O)O (single isomer, unassigned; (+)) [(+)-2-(3-Hydroxy-3-methyloctyl)-5-oxocyclopentaneheptanoic a] [(+)-2-(3-Hydroxy-3-methyloctyl)-5-oxocyclopentaneheptanoic acid]
diarrheal effect [3]: do not cause an appreciable diarrheal effect
Relative Potency ± S.E.M. [1]: 1.02 ± 0.42

CCCCCC(C)(O)CCC1CCC(=O)C1CCCCCCC(=O)O (single isomer, unassigned; (+)) [(+)-2-(3-Hydroxy-3-methyloctyl)-5-oxocyclopentaneheptanoic acid]
ED50 [1, 10]: 0.11 mg/kg

CCCCCC(C)(O)CCC1CCC(=O)C1CCCCCCC(=O)O (single isomer, unassigned; (-)) [(-)-2-(3-Hydroxy-3-methyloctyl)-5-oxocyclopentaneheptanoic a] [(-)-2-(3-Hydroxy-3-methyloctyl)-5-oxocyclopentaneheptanoic acid]
diarrheal effect [3]: do not cause an appreciable diarrheal effect
ED50 for inhibiting indomethacin-induced ulcer ([1]; rat, method of Example 1 (dose in mg/kg there), unit inferred, 300 min): 0.11 mg/kg
Relative Potency ± S.E.M. [1]: 1.01 ± 0.40

CCCCCC(C)(O)CCC1CCC(=O)C1CCCCCCC(=O)O (stereo not shown) [2-(3-hydroxy-3-methyloctyl)-5-oxocyclopentaneheptanoic acid]
diarrheal effect [3]: do not cause an appreciable diarrheal effect
% Inhibition of ulcer formation ([1]; 0.075 mg/kg p.o., indomethacin 20 mg/kg i.p., 5 hr): 43%
Ulcers Formed, Mean ± S.E.M. ([1]; 0.075 mg/kg p.o., indomethacin 20 mg/kg i.p., 5 hr, n=9, P < 0.01): 5.9 ± 0.8
% Inhibition of ulcer formation ([1]; 0.15 mg/kg p.o., indomethacin 20 mg/kg i.p., 5 hr): 56%
Ulcers Formed, Mean ± S.E.M. ([1]; 0.15 mg/kg p.o., indomethacin 20 mg/kg i.p., 5 hr, n=9, P < 0.01): 4.6 ± 0.6
% Inhibition of ulcer formation ([1]; 0.30 mg/kg p.o., indomethacin 20 mg/kg i.p., 5 hr): 69%
Ulcers Formed, Mean ± S.E.M. ([1]; 0.30 mg/kg p.o., indomethacin 20 mg/kg i.p., 5 hr, n=9, P < 0.001): 3.2 ± 0.5
ED50 [1, 11]: 0.11 mg/kg
ED50 [1, 10]: 0.11 mg/kg
ED50 [2]: 4.3 mg/kg
% Inhibition of ulcer formation ([4]; 7.5 mg/kg p.o.): 24%
Ulcers Formed, Mean ± S.E.M. ([4]; 7.5 mg/kg p.o., n=10): 4.1 ± 1.0
% Inhibition of ulcer formation ([4]; 15 mg/kg p.o.): 48%
Ulcers Formed, Mean ± S.E.M. ([4]; 15 mg/kg p.o., n=9): 2.8 ± 0.6
% Inhibition of ulcer formation ([4]; 30 mg/kg p.o.): 78%
Ulcers Formed, Mean ± S.E.M. ([4]; 30 mg/kg p.o., n=9): 1.2 ± 0.5
ED50 ([4]; Rattus norvegicus, po, over an 18 hr period): ~15 mg/kg

CCCCC[C@H](O)/C=C/[C@@H]1[C@@H](CCCCCCC(=O)O)[C@@H](O)C[C@H]1O [PGF1α]
stability [5]: relatively unstable

COc1ccc2c(c1)c(CC(=O)O)c(C)n2C(=O)c1ccc(Cl)cc1 [indomethacin]
correlation between dosage and occurrence of ulcers [6]: found a correlation between indomethacin dosage and the occurence of ulcers in man
correlation between dosage and occurrence of ulcers ([7]; rat, Lee et al.): found a similar correlation in the rat

CC(C)[N+](C)(CCOC(=O)C1c2ccccc2Oc2ccccc21)C(C)C [propantheline bromide, reference compound]
% Inhibition of ulcer formation ([1]; 1.5 mg/kg p.o., indomethacin 20 mg/kg i.p., 5 hr): 36%
Ulcers Formed, Mean ± S.E.M. ([1]; 1.5 mg/kg p.o., indomethacin 20 mg/kg i.p., 5 hr, n=9, P < 0.05): 6.9 ± 0.9
% Inhibition of ulcer formation ([1]; 3.0 mg/kg p.o., indomethacin 20 mg/kg i.p., 5 hr): 52%
Ulcers Formed, Mean ± S.E.M. ([1]; 3.0 mg/kg p.o., indomethacin 20 mg/kg i.p., 5 hr, n=9, P < 0.01): 5.0 ± 1.0
% Inhibition of ulcer formation ([1]; 6.0 mg/kg p.o., indomethacin 20 mg/kg i.p., 5 hr): 61%
Ulcers Formed, Mean ± S.E.M. ([1]; 6.0 mg/kg p.o., indomethacin 20 mg/kg i.p., 5 hr, n=8, P < 0.01): 4.1 ± 0.9
times less potent than 2-(3-hydroxy-3-methyloctyl)-5-oxocyclopentaneheptanoic acid ([1]; ED50 comparison, p.o., indomethacin-induced ulcers): 27 times
ED50 [1, 11]: 3 mg/kg
reduction of the ulcerogenic activity of indomethacin ([7]; rats, Lee et al. 1971, dose relative to usual therapeutic dose): proved to be effective but only when administered at does much higher than their usual therapeutic dose

CCCCC[C@H](O)/C=C/[C@H]1[C@H](O)CC(=O)[C@@H]1CCCCCCC(=O)O [prostaglandin E1]
diarrheal effect [8]: diarrheal effect associated with larger doses
effect on gastric acid secretion [9]: inhibit gastric acid secretion

CCCCC[C@H](O)/C=C/[C@H]1[C@H](O)CC(=O)[C@@H]1C/C=C\CCCC(=O)O [prostaglandin E2]
stability [5]: relatively unstable
dehydration of the 11-hydroxy group ([5]; under both basic and acidic conditions): participates readily in dehydration reactions under both basic and acidic conditions
test animals with diarrhea ([3]; 43 mg/kg peroral): 50%

trans-2-(3-Methyl-3-oxooctyl)-5-oxocyclopentaneheptanoic acid
Relative Potency ± S.E.M. [1]: 0.43 ± 0.14
